Residues, ends and D or L forms follow the SMILES beside them.

For the compound `CC(C)(C)OC(=O)CN1CCOc2ccc([N+](=O)[O-])cc2C1=O`, the melting point (as a rule, the temperature, or range, at which the solid turns liquid) turned out to be 190 °C.

`CCOC(=O)CN1C(=O)C(NC(=O)Nc2ccc(Cl)cc2)N=C(c2ccccc2)c2ccccc21` (stereo unspecified) showed a melting point of 228 to 229 °C.

On to `C#CC1(OC(C)=O)CCC2C3CCC4=CC(=O)CCC4C3C(C(F)F)CC21C` (stereo unspecified), for which the melting point is 157 to 180 °C.

The compound `Cc1ccc(Nc2nc(=O)cc(N)n2-c2ccccc2)cc1` returned a melting point of 207 to 210 °C.

In turn, `COc1cc2nc(C)nc(Cl)c2cc1OC` showed a melting point of 182 to 184 °C.

`COC(=O)C1=C(CF)NC(C)=C(C(=O)OC(C)C)C1c1ccccc1C(F)(F)F` (stereo unspecified): the melting point was 71 to 72 °C.

Turning to `COC(=O)NNc1cc(C)cc2c1OC(C)C2` (stereo unspecified), the melting point was 82 to 84 °C.

In turn, `Cc1cc(-c2nc3cc(Cl)cc(CCc4ccccn4)c3o2)[nH]n1` returned a melting point of 205 to 220 °C.

The compound `Cc1cnc2c(Br)cnn2c1-c1cccnc1` displayed a melting point of 166 to 168 °C.

Compound `COc1ccc(CN(CCC(=O)O)c2nc(NC(=O)Nc3ccccc3OC)nc(Oc3ccc4ccccc4c3)n2)cc1` displayed a melting point of 197 to 205 °C.

`CCOC(=O)C1CCN(c2cc(-c3ccccc3)nc3ccc(F)cc23)CC1` showed a melting point of 120 to 124 °C.

On to `O=c1[nH][nH]c(=O)c2c(O)c(-c3ccccc3)ncc12`, for which the melting point was more than 300 °C.

In the case of `COc1cc2nc(N3CCc4cc(OCc5ccccc5)c(OC)cc4C3)cc(N)c2cc1OC`, the melting point lay within 181 to 182 °C.

Compound `CSC[C@H](NC(=O)C(C)(C)SC)C(=O)O` returned a melting point of 120 to 121 °C.

In the case of `NCCCCCCCCC(=O)O`, the melting point is 190 to 193 °C.

Take `CC[C@H](C1CC1)n1cc(Cl)nc(N2CCc3cc(OC)cc(C)c32)c1=O`: the melting point fell in the range of 156 to 158 °C.

Regarding `CC(C)(C)N1CC(COc2cccc3c(S)nccc23)OC1=O` (stereo unspecified), the melting point lay within 264 to 269 °C.

`Cc1ccc(S(=O)(=O)OC(C)C(=O)N2CCOCC2)cc1` (stereo unspecified) had a melting point of 75 to 77 °C.

In the case of `N#CCc1ccc(C2CCCCC2)cc1`, the melting point was 48 to 49 °C.

Take `Cc1c(C(=O)c2ccc3ccccc3c2)cccc1[N+](=O)[O-]`: the melting point lay within 100 to 102 °C.

Regarding `NC(=O)CCCCn1ccc([N+](=O)[O-])n1`, the melting point was in the range of 129 to 131 °C.

For the compound `COc1cc2c(cc1C)C1(CO2)C(=O)N(CC2CCCO2)c2ccccc21` (stereo unspecified), the melting point was in the range of 151 to 153 °C.

`N#Cc1ccc2c(c1)nc(/C=C/c1ccccc1)n2-c1ccccn1` had a melting point of 172 to 173 °C.

`Nc1ccc(OCc2nnco2)cc1`: the melting point was 56 to 57 °C.

`CCC(=O)N1N=C(c2ccc([N+](=O)[O-])cc2)c2cc(Cl)ccc2CC1C` (stereo unspecified) returned a melting point of 160 to 161 °C.

As for `O=C(NN=CC=Cc1ccc([N+](=O)[O-])o1)c1cc2ccccc2cc1O`, the melting point was 259 °C.

As to `N#Cc1ccc(NC(=O)NC(=O)c2ccccc2Cl)c(Cl)c1Cl`, the melting point is 278 to 282 °C.

As to `CCOC(=O)CCCc1cn(C(c2ccccc2)(c2ccccc2)c2ccccc2)cn1`, the melting point turned out to be 134 °C.

As for `CON=C(C(C)=NN)c1ccccc1`, the melting point was 132 °C.

`COc1nc(-c2ccccc2Cl)c2ccsc2n1` gave a melting point of 172 to 174 °C.

`O=C(COC1CCCCO1)c1ccccn1` (stereo unspecified) came in with a melting point of 63 to 65 °C.

Compound `COc1ccc(C(=O)Nc2cc(NC(=O)c3ccc(N(C)CCCN(C)C)cc3)ccc2C)cc1OC` had a melting point of 164 to 165 °C.

`CCNc1nc2n(n1)Cc1ccccc1-2`: the melting point is 150 to 152 °C.

With `CCOC(=O)C1C(=O)N(CC)c2cc3cc(C)oc3cc21` (stereo unspecified), the melting point was 82 to 90 °C.

On to `Cn1cc2c(C3C(=O)Nc4ccc(Br)cc43)nc(NCCN)nc2n1` (stereo unspecified), for which the melting point lay in the range of 260 to 262 °C.

In the case of `O=S(=O)(c1ccc(Br)cc1)N1C=CC=NC=C1`, the melting point is 95 to 97 °C.

`COc1cc(CC(=O)NCCCc2ccc(C)c(C)c2)ccc1OCCN` gave a melting point of 125 °C.

Regarding `CCCSc1nsnc1O`, the melting point was in the range of 84 to 85 °C.

As to `COc1ccc(-c2cncc(OC3SCC(O)C(O)C3O)c2)c(OC)c1` (stereo unspecified), the melting point stood at 184 °C.

Consider `CCN(CC)Cc1cc(C(N)=O)ccc1N`, for which the melting point was in the range of 129 to 131 °C.

`COc1ccc(C(=O)N2C(=O)CCC2CCC(=O)OCc2ccccc2)cc1OCc1ccccc1` (stereo unspecified): the melting point lay within 92 to 95 °C.

Consider `c1ncn(CCc2ccc3c(c2)-c2[nH]nc(-c4ccsc4)c2C3)n1`, for which the melting point fell in the range of 167 to 168 °C.

As to `CC(C)c1ccc(NC(=O)OC(C)(C)C)c(NC(=O)CC(=O)c2cccc(C#N)c2)c1`, the melting point fell in the range of 179 to 180 °C.

The compound `O=C(O)n1ccc2c(OCc3ccccc3)c(Cc3ccccc3)ccc21` registered a melting point of 181 to 183 °C.

`C=Cc1ccc(CSc2ccccc2C(=O)O)cc1` returned a melting point of 207 to 209 °C.

Turning to `CC(C)(C)C(Cl)=C(C#N)C#N`, the melting point was 52 to 53 °C.

`CCOC(=O)Cc1cccc2c(-c3ccccc3)onc12`: the melting point was 97 to 98 °C.

For `OCCN1CCN(c2ccc(Nc3ncc4ccc(-c5cccnc5)n4n3)cc2)CC1`, the melting point lay in the range of 189 to 190 °C.

Take `O=C1C2=C(CCCC2)C(=O)N1c1cc(OC2CCCC2)c(Cl)cc1F`: the melting point is 69 to 75.2 °C.

For `CC(C)(C)OC(=O)NCc1ccc([N+](=O)[O-])cc1`, the melting point is 110 to 111 °C.

`Nc1nc(N)c2ncn(/C=C3/CC3(CO)CO)c2n1` came in with a melting point of 219 to 220 °C.

As to `O=S(=O)(Nc1ncnc(Cl)c1-c1ccc(-c2ccccc2)cc1)c1ccc(Cl)cc1`, the melting point was in the range of 234 to 235 °C.

Take `COC(=O)C(=O)c1ccc(OCCOc2ccccc2F)cc1`: the melting point fell in the range of 112 to 113 °C.

Take `CSc1cc([N+](=O)[O-])ccc1C(N)=O`: the melting point lay within 202 to 204 °C.

For `N#Cc1c(C(=O)O)cnn1-c1ccc(Br)cc1`, the melting point was in the range of 209 to 211 °C.

In turn, `COC(=O)C(CCl)NC(=O)c1c(F)cccc1F` (stereo unspecified) had a melting point of 93.5 °C.

The compound `CCOC(=O)CC(O)CC(O)C=CC(=C(c1ccc(F)cc1)c1ccc(F)cc1)n1nnnc1-c1ccccc1` (stereo unspecified) had a melting point of 160 to 162 °C.

As for `CC1SC(c2cccnc2)N(C2CCCCC2)C1=O` (stereo unspecified), the melting point was 120 to 125 °C.

`CCCC(O)c1cc(C)cc(C)c1C=CC1OCC(C)(C)CO1` (stereo unspecified) registered a melting point of 56 to 59 °C.

`CCNCC(=O)Nc1c(Cc2nccc3ccccc23)ccc(OC)c1OC` came in with a melting point of 107 to 108 °C.

In turn, `COCOc1ccc(C=O)c(Oc2ncc(C(F)(F)F)cc2Cl)c1` displayed a melting point of 93.9 to 94 °C.

For the compound `CC(c1cccc(C2(c3ccccc3)OCCO2)c1)c1nc(N)no1` (stereo unspecified), the melting point is 112 to 114 °C.

Compound `CC(C)CC(NC(=O)C(Cc1ccccc1)NC(=O)CNC(=O)C(C)NC(=O)C(N)Cc1ccc(O)cc1)C(=O)NC(CCCNC(=N)N)C(=O)O` (stereo unspecified) (H-YAGFLR-OH; configuration not given here) came in with a melting point of 173 to 176 °C.

Take `Nc1nc(N)nc(Cc2nc3ccccc3n2-c2ccccc2)n1`: the melting point was 337 to 340 °C.

For `O=C(O)[C@H]1CCCN1C(=O)Cc1ccc(CC(=O)N2CCC[C@@H]2C(=O)O)cc1`, the melting point is 210 to 214 °C.

Regarding `COc1ccc(C)cc1NC(=O)Nc1ccc(N2CCN(C(=O)Nc3ccc(NC(C)=O)cc3Cl)CC2)cc1`, the melting point was in the range of 155 to 157 °C.

Turning to `O=C(Cc1c(C(=O)c2ccccc2)[nH]c2cc(Cl)ccc12)NCCO`, the melting point is 178 to 180 °C.

As for `CN(C(=O)c1c(Cl)cccc1Cl)c1cc(-c2ccc(Cl)cc2)on1`, the melting point lay within 175 to 178 °C.

In turn, `COc1ccccc1C1(Cl)C(=O)Nc2cc(C)c(Cl)cc21` (stereo unspecified) showed a melting point of 254 to 256 °C.

`Cn1c(COc2ccc(CC3SC(=O)NC3=O)cc2)nc2ccc(Oc3ccc(NC(=O)Nc4cccc5ccccc45)cc3)cc21` (stereo unspecified): the melting point fell in the range of 211 to 214 °C.

The compound `Fc1ccc2[nH]cc(C3=CCC(N4CCC(Cc5ccccc5)CC4)CC3)c2c1` (stereo unspecified) yielded a melting point of 72 to 74 °C.

For the compound `CC(C)c1ncc(C(=O)O)nc1C(C)C`, the melting point was 128 to 130 °C.

In turn, `COc1ccc(-c2[nH]c3cn[nH]c(=O)c3c2Cl)cc1OC1CCC1` had a melting point of 285 to 287 °C.

Compound `CCCCCCCCSCCSc1nc(N)n[nH]1` came in with a melting point of 85 to 86 °C.

As to `COc1cc2c3c(c1O)CN(C)CC3c1ccccc1CC2` (stereo unspecified), the melting point fell in the range of 173 to 174 °C.

In the case of `COC(=O)CCCc1c(-c2ccc(F)cc2)[nH]c2ccc(-c3ccc(O)cc3)cc12`, the melting point is 141 to 143 °C.

Take `COc1cc(OC)nc(NC(=O)NS(=O)(=O)c2ccccc2CS(=O)(=O)N(C)C)n1`: the melting point fell in the range of 172 to 176 °C.

The compound `COc1cc2cc(C(=O)NO)sc2cc1OC` returned a melting point of 179 to 180 °C.

The compound `[N-]=[N+]=NS(=O)(=O)c1cccc(C(=O)Cl)c1` came in with a melting point of 41 °C.

Compound `[N-]=[N+]=NC1CCc2ccccc2N(c2ccccc2)C1=O` (stereo unspecified) showed a melting point of 141 to 143 °C.

On to `Cc1c(CCN(C(=O)C(F)(F)F)c2cc3ccccc3n2C)ncn1S(=O)(=O)N(C)C`, for which the melting point was in the range of 156 to 158 °C.

Compound `CN(C)C1(c2ccccc2)CCC(=CC(=O)NCCCc2c[nH]c3ccccc23)CC1` (stereo unspecified) had a melting point of 85 to 87 °C.

`Cc1nc(C(=O)NS(=O)(=O)c2c(C)csc2C)no1` showed a melting point of 164 °C.

On to `COc1ccc(CNc2nc(N3CCC(C(=O)O)CC3)nc3sc(C(F)(F)F)cc23)cc1OC`, for which the melting point was found to be 203 °C.

In the case of `CN1CCN(c2cc(NC(=O)OC(C)(C)C)c([N+](=O)[O-])cc2I)CC1`, the melting point was in the range of 134 to 136 °C.

For the compound `CCCCCCCCCCCP(=O)(c1ccccc1)c1ccccc1`, the melting point came to 69 °C.

As to `O=C1C(CCO)Oc2ccccc2N1Cc1cccc2ccccc12` (stereo unspecified), the melting point lay within 100 to 104 °C.

Consider `COC(=O)C(C(C)C)S(=O)(=O)N(C(C)=O)c1nc(OC)cc(OC)n1` (stereo unspecified), for which the melting point was 100 to 102 °C.

As for `N#Cc1coc(CBr)c1`, the melting point lay in the range of 40 to 45 °C.

As to `COc1ccc(-c2cc(C(O)C(F)(F)F)[nH]c2-c2ccc(OC)cc2)cc1` (stereo unspecified), the melting point was 84 to 86 °C.

For the compound `Cc1cnc2cccc(Oc3cc(-c4ccc(C(F)(F)F)cc4)ncn3)c2n1`, the melting point fell in the range of 139 to 141 °C.

The values are drawn from a melting point compilation (Tetko et al.; mined from patent text by program, amines drawn as free bases though some values may be those of a salt).
